Active and inactive are the calls of the source. No rule for the calls is given here.
Test system: CCRIS mutagenicity, Ames/micronucleus/aberration tests
Assay: CCRIS mutagenicity studies

BrCCBr
mutagenic call (End Point: IN VITRO CHROMOSOMAL ABERRATIONS, Test System: CHL CELLS, Metabolic Activation: RAT, LIVER, S-9, SODIUM PHENOBARBITAL AND 5,6-BENZOFLAVONE): active; positive (structural changes) | mutagenic call (End Point: IN VITRO CHROMOSOMAL ABERRATIONS, Test System: CHO CELLS, Metabolic Activation: NONE): active; positive | mutagenic call (End Point: IN VITRO CHROMOSOMAL ABERRATIONS, Test System: CHO CELLS, Metabolic Activation: RAT, LIVER, S-9, AROCLOR 1254): active; positive | mutagenic call (Test System: AMES SALMONELLA TYPHIMURIUM, Strain/Indicator: TA97, Metabolic Activation: NONE, Method: STANDARD PLATE): active; positive | mutagenic call (Test System: AMES SALMONELLA TYPHIMURIUM, Strain/Indicator: TA97, Metabolic Activation: RAT, LIVER, S-9, AROCLOR 1254, Method: STANDARD PLATE): active; positive | mutagenic call (Test System: AMES SALMONELLA TYPHIMURIUM, Strain/Indicator: TA98, Metabolic Activation: NONE, Method: STANDARD PLATE): inactive; negative | mutagenic call (Test System: AMES SALMONELLA TYPHIMURIUM, Strain/Indicator: TA98, Metabolic Activation: RAT, LIVER, S-9, AROCLOR 1254, Method: STANDARD PLATE): active; positive | mutagenic call (Test System: AMES SALMONELLA TYPHIMURIUM, Strain/Indicator: TA100/NG-57, Metabolic Activation: CELL PRETREATMENT WITH GLUTATHIONE, Method: PREINCUBATION): active; positive | mutagenic call (Test System: AMES SALMONELLA TYPHIMURIUM, Strain/Indicator: TA100/NG-57, Metabolic Activation: NONE, Method: PREINCUBATION): inactive; negative | mutagenic call (Test System: AMES SALMONELLA TYPHIMURIUM, Strain/Indicator: TA100, Metabolic Activation: CELL PRETREATMENT WITH GLUTATHIONE, Method: PREINCUBATION): active; positive | mutagenic call (Test System: AMES SALMONELLA TYPHIMURIUM, Strain/Indicator: TA100, Metabolic Activation: NONE): active; positive | mutagenic call (Test System: AMES SALMONELLA TYPHIMURIUM, Strain/Indicator: TA100, Metabolic Activation: NONE, Method: PREINCUBATION): active; positive | mutagenic call (Test System: AMES SALMONELLA TYPHIMURIUM, Strain/Indicator: TA100, Metabolic Activation: NONE, Method: SUSPENSION/PLATE): active; positive | mutagenic call (Test System: AMES SALMONELLA TYPHIMURIUM, Strain/Indicator: TA100, Metabolic Activation: RAT, KIDNEY, S-9, AROCLOR 1254): active; positive | mutagenic call (Test System: AMES SALMONELLA TYPHIMURIUM, Strain/Indicator: TA100, Metabolic Activation: RAT, LIVER, HEPATOCYTES, Method: SUSPENSION/PLATE): active; positive | mutagenic call (Test System: AMES SALMONELLA TYPHIMURIUM, Strain/Indicator: TA100, Metabolic Activation: RAT, LIVER, S-9, AROCLOR 1254): active; positive | mutagenic call (Test System: AMES SALMONELLA TYPHIMURIUM, Strain/Indicator: TA100, Metabolic Activation: RAT, LIVER, S-9, AROCLOR 1254, Method: STANDARD PLATE): active; positive | mutagenic call (Test System: AMES SALMONELLA TYPHIMURIUM, Strain/Indicator: TA100, Metabolic Activation: RAT, LIVER, S-9, AROCLOR 1254 AND RAT, KIDNEY, S-9, AROCLOR 1254): active; positive | mutagenic call (Test System: AMES SALMONELLA TYPHIMURIUM, Strain/Indicator: TA100, Metabolic Activation: S-9 MIX, Method: STANDARD PLATE): active; positive | mutagenic call (Test System: AMES SALMONELLA TYPHIMURIUM, Strain/Indicator: TA102, Metabolic Activation: NONE, Method: STANDARD PLATE): inactive; negative | mutagenic call (Test System: AMES SALMONELLA TYPHIMURIUM, Strain/Indicator: TA104, Metabolic Activation: NONE, Method: STANDARD PLATE): inactive; negative | mutagenic call (Test System: AMES SALMONELLA TYPHIMURIUM, Strain/Indicator: TA104, Metabolic Activation: RAT, LIVER, S-9, AROCLOR 1254, Method: STANDARD PLATE): inactive; negative | mutagenic call (Test System: AMES SALMONELLA TYPHIMURIUM, Strain/Indicator: TA1530, Metabolic Activation: NONE, Method: SPOT): active; positive | mutagenic call (Test System: AMES SALMONELLA TYPHIMURIUM, Strain/Indicator: TA1535/NG-19, Metabolic Activation: CELL PRETREATMENT WITH GLUTATHIONE, Method: PREINCUBATION): active; positive | mutagenic call (Test System: AMES SALMONELLA TYPHIMURIUM, Strain/Indicator: TA1535/NG-19, Metabolic Activation: NONE, Method: PREINCUBATION): active; positive | mutagenic call (Test System: AMES SALMONELLA TYPHIMURIUM, Strain/Indicator: TA1535, Metabolic Activation: CELL PRETREATMENT WITH GLUTATHIONE, Method: PREINCUBATION): active; positive | mutagenic call (Test System: AMES SALMONELLA TYPHIMURIUM, Strain/Indicator: TA1535, Metabolic Activation: NONE, Method: PREINCUBATION): active; positive | mutagenic call (Test System: AMES SALMONELLA TYPHIMURIUM, Strain/Indicator: TA1535, Metabolic Activation: NONE, Method: STANDARD PLATE): active; positive | mutagenic call (Test System: AMES SALMONELLA TYPHIMURIUM, Strain/Indicator: TA1535, Metabolic Activation: RAT, KIDNEY, S-9, AROCLOR 1254): active; positive | mutagenic call (Test System: AMES SALMONELLA TYPHIMURIUM, Strain/Indicator: TA1535, Metabolic Activation: RAT, LIVER, S-9, AROCLOR 1254, Method: PREINCUBATION): active; positive | mutagenic call (Test System: AMES SALMONELLA TYPHIMURIUM, Strain/Indicator: TA1535, Metabolic Activation: RAT, LIVER, S-9, AROCLOR 1254, Method: STANDARD PLATE): active; positive | mutagenic call (Test System: AMES SALMONELLA TYPHIMURIUM, Strain/Indicator: TA1535, Metabolic Activation: RAT, LIVER, S-9, AROCLOR 1254 AND RAT, KIDNEY, S-9, AROCLOR 1254): active; positive | mutagenic call (Test System: AMES SALMONELLA TYPHIMURIUM, Strain/Indicator: TA1535, Metabolic Activation: RAT, LIVER, S-9, PHENOBARBITAL, Method: STANDARD PLATE): active; positive | mutagenic call (Test System: AMES SALMONELLA TYPHIMURIUM, Strain/Indicator: TA2638, Metabolic Activation: NONE, Method: STANDARD PLATE): inactive; negative | mutagenic call (Test System: AMES SALMONELLA TYPHIMURIUM, Strain/Indicator: YG7100, Metabolic Activation: NONE, Method: PREINCUBATION): active; positive | mutagenic call (Test System: AMES SALMONELLA TYPHIMURIUM, Strain/Indicator: YG7104, Metabolic Activation: NONE, Method: PREINCUBATION): active; positive | mutagenic call (Test System: AMES SALMONELLA TYPHIMURIUM, Strain/Indicator: YG7108, Metabolic Activation: NONE, Method: PREINCUBATION): active; positive | mutagenic call (Test System: AMES SALMONELLA TYPHIMURIUM, Strain/Indicator: YG7112, Metabolic Activation: NONE, Method: PREINCUBATION): active; positive | mutagenic call (Test System: AMES SALMONELLA TYPHIMURIUM, Strain/Indicator: YG7113, Metabolic Activation: NONE, Method: PREINCUBATION): active; positive | mutagenic call (Test System: AMES SALMONELLA TYPHIMURIUM, Strain/Indicator: YG7119, Metabolic Activation: NONE, Method: PREINCUBATION): active; positive | mutagenic call (Test System: CHINESE HAMSTER OVARY, Strain/Indicator: CHO-K1 (HPRT)/6-THIOGUANINE, Metabolic Activation: NONE, Method: SUSPENSION/PLATE): active; positive | mutagenic call (Test System: CHINESE HAMSTER OVARY, Strain/Indicator: CHO-K1-BH4 (HGPRT)/6-THIOGUANINE, Metabolic Activation: NONE): inactive; negative | mutagenic call (Test System: E. COLI, Strain/Indicator: K12(AB1157), Metabolic Activation: NONE, Method: SUSPENSION/PLATE): inactive; negative | mutagenic call (Test System: E. COLI, Strain/Indicator: K12(AB1157), Metabolic Activation: RAT, LIVER, S-9, PHENOBARBITAL AND BETA-NAPHTHOFLAVONE, Method: SUSPENSION/PLATE): inactive; negative | mutagenic call (Test System: E. COLI, Strain/Indicator: K12(AB1886) UVRA, Metabolic Activation: NONE, Method: SUSPENSION/PLATE): active; positive | mutagenic call (Test System: E. COLI, Strain/Indicator: K12(AB1886) UVRA, Metabolic Activation: RAT, LIVER, S-9, PHENOBARBITAL AND BETA-NAPHTHOFLAVONE, Method: SUSPENSION/PLATE): active; positive | mutagenic call (Test System: E. COLI, Strain/Indicator: K12(AB2480) RECA/UVRA, Metabolic Activation: NONE, Method: SUSPENSION/PLATE): inactive; negative | mutagenic call (Test System: E. COLI, Strain/Indicator: K12(AB2480) RECA/UVRA, Metabolic Activation: RAT, LIVER, S-9, PHENOBARBITAL AND BETA-NAPHTHOFLAVONE, Method: SUSPENSION/PLATE): inactive; negative | mutagenic call (Test System: E. COLI, Strain/Indicator: WP2 UVRA (PKM101), Metabolic Activation: NONE, Method: STANDARD PLATE): active; positive | mutagenic call (Test System: MOUSE LYMPHOMA, Strain/Indicator: L5178Y (TK+/TK-), Metabolic Activation: NONE, Method: SUSPENSION/PLATE): active; positive | mutagenic call (Test System: MOUSE LYMPHOMA, Strain/Indicator: L5178Y (TK+/TK-), Metabolic Activation: RAT, LIVER, S-9, AROCLOR 1254, Method: SUSPENSION/PLATE): active; positive

— PubChem BioAssay AID1259407 (Chemical Carcinogenesis Research Information System (CCRIS), 2018)
